Measured values: BindingDB's records for doi:10.1021/jm00046a002 (Upjohn, 1994)

Legend:
[1] = target: T1, Dimer of Gag-Pol polyprotein [489-587] (Human immunodeficiency virus 1, UniProt P12497); assay: Protease Inhibition Assay
T1 construct: 489-587
Text: (§1) HIV-1 protease was purified and refolded from E. coli inclusion bodies. The substrate used spans the p17-p24 processing site (R-V-S-Q-N-Y-P-I-V-Q-N-K) and was derivatized with biotin and fluorescein isothiocyanate (FITC) at the amino and carboxy termini. In the presence of HIV-l protease, the substrate is rapidly cleaved into two parts. The biotinylated amino terminal fragment binds to the avidin beads while the FITC-containing carboxy1 terminal fragment is removed through the membrane. […] The bound fluorescence is obtained by processing on an IDEXX Screen Machine. Determination of Ki values with this assay requires analysis under conditions in which substrate concentration resides substantially below Km and the inhibitor concentrations greatly exceeds the Ki value and the enzyme concentration.

[2] = target: T2, Dimer of Gag-Pol polyprotein [514-612] (Human immunodeficiency virus 2, UniProt P04584); assay: Protease Inhibition Assay
T2 construct: 514-612
T2 sequence (P04584 whole entry): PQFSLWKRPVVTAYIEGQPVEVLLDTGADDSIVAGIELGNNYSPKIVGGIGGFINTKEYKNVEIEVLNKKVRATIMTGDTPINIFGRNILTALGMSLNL
Text: as §1

| Structure (SMILES) | Ki [1] [nM] | Ki [2] [nM] |
| --- | --- | --- |
| O=c1oc2c(c(O)c1C(c1ccccc1)C1CC1)CCCCCC2 (configuration not stated) | 15 |  |
| CCC(Cc1ccccc1)c1cc(O)c(C(CC)c2ccccc2)c(=O)o1 (configuration not stated) [4-hydroxy-6-(1-phenylbutan-2-yl)-3-(1-phenylpropyl)-2H-pyran-2-one] |  | 32 |
